Laboratory results as given in patent US8173682B2, “Substituted pyridones as inhibitors of poly(ADP-ribose) polymerase (PARP)” (Aventis Pharmaceuticals Inc., priority 2004, dated 2012).

Biological target: recombinantly expressed human PARP-1 enzyme (Homo sapiens, UniProt P09874)
Assay: PARP enzyme assay, Method B (tritium-labeled NAD incorporation)
Format: biochemical
Conditions: Method B; 200 μM NAD, room temperature 1 hour, pH 8.0; read-out: IC50 (μM)/Method B
Protocol: Method B: PARP Enzyme Assay:
The IC50 is determined in this method by incubating the substances to be tested with the DNA-activated, recombinantly expressed and purified PARP-1 enzyme. Specifically, various concentrations of the test substance are incubated in 50 μL of reaction solution, which contains 50 mM Tris, 5 mM MgCl2, 1 mM DTT, 200 μM NAD, 0.1 m Ci/mL tritium-labeled NAD, 0.1 mg/mL DNA, 0.1 mg/mL histones, 2 μg/mL recombinantly expressed human PARP-1 enzyme, pH=8.0, at room temperature for 1 hour. The reaction is stopped by adding 150 μL of 20% trichloroacetic acid, and the radiolabeled protein constituents are precipitated. After incubation on ice for 10 minutes, the labeled, insoluble constituents are separated off through a glass fiber filter and, after washing with 20% trichloroacetic acid three times, the radioactivity incorporated by the PARP-1 enzyme is measured by radioluminescence. Consideration of the incorporation rates determined in this way as a function of the concentration of the test substance results in IC50 as the concentration of the test substance which reduces the incorporation rate to half the maximum value attainable (incubation without inhibitor).
The IC50 (fifty percent inhibitory concentration of the test substance in a solution—expressed at micromolar (μM) concentration) measured in accordance with these procedures for the compounds of this invention are summarized in Table 1.

Sequence of recombinantly expressed human PARP-1 enzyme (P09874 whole entry): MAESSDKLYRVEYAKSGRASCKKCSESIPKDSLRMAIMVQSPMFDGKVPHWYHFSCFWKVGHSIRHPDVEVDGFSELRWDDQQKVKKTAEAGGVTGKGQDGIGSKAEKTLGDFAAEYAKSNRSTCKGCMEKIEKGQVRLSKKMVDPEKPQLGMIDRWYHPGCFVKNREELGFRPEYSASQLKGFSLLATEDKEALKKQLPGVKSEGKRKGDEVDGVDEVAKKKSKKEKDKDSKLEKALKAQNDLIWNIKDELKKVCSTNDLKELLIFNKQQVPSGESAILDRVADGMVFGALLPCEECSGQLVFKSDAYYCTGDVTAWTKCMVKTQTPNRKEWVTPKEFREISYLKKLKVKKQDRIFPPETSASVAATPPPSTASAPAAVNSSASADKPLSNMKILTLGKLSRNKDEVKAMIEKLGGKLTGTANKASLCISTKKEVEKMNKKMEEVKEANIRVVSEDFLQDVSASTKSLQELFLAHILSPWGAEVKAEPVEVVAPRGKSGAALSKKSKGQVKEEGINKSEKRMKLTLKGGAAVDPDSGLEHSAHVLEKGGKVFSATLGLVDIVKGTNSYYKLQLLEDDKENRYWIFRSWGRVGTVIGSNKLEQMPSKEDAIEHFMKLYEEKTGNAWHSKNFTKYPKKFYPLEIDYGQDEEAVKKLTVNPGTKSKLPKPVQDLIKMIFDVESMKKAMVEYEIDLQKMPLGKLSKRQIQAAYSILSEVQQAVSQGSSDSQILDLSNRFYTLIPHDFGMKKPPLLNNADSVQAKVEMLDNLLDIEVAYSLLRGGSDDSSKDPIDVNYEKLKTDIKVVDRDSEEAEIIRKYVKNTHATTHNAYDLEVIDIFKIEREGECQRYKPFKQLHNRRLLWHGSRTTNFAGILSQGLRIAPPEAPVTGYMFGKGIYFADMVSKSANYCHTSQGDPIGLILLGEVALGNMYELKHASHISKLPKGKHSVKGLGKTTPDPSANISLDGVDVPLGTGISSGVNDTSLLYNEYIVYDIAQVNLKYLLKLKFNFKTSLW

| SMILES | IC50 [µM] |
| --- | --- |
| CCc1cc(-c2ccc(CNCc3ccccc3OC(F)(F)F)o2)c(C)[nH]c1=O [Example 182E, 3-Ethyl-6-methyl-5-{5-[(2-trifluoromethoxy-benzylamino)-methyl]-furan-2-yl}-1H-pyridin-2-one] | 1.49 |
| CCc1cc(-c2ccc(CN3CCCC3)o2)c(C)[nH]c1=O [Example 181] | 0.49 |
| CCc1cc(-c2cncc(C(=O)N(C)CC(N)=O)c2)c(C)[nH]c1=O [Example 233, 5′-Ethyl-2′-methyl-6′-oxo-1′,6′-dihydro-[3,3′]bipyridinyl-5-carboxylic acid carbamoylmethyl-methyl-amide] | 1.65 |
| CCc1cc(-c2cncc(C(=O)NCCc3nc4ccccc4[nH]3)c2)c(C)[nH]c1=O [Example 245, 5′-Ethyl-2′-methyl-6′-oxo-1′,6′-dihydro-[3,3′]bipyridinyl-5-carboxylic acid [2-(1H-benzoimidazol-2-yl)-ethyl]-amide] | 1.9 |
| CCc1cc(-c2ccc(C(=O)N3CCCC3)cn2)c(C)[nH]c1=O [Example 211, 5′-Ethyl-2′-methyl-5-(pyrrolidine-1-carbonyl)-1′H-[2,3′]bipyridinyl-6′-one] | 8.6 |
| CCc1cc(-c2ccc(CNCc3cnn(C)c3)o2)c(C)[nH]c1=O [Example 182D, 3-Ethyl-6-methyl-5-(5-{[(1-methyl-1H-pyrazol-4-ylmethyl)-amino]-methyl}-furan-2-yl)-1H-pyridin-2-one] | 0.3 |
| CCc1cc(-c2cncc(C(=O)NCc3cccnc3)c2)c(C)[nH]c1=O [Example 222, 5′-Ethyl-2′-methyl-6′-oxo-1′,6′-dihydro-[3,3′]bipyridinyl-5-carboxylic acid (pyridin-3-ylmethyl)-amide] | 0.75 |
| CCc1cc(-c2cncc(C(=O)NC(c3cccnc3)C3CC3)c2)c(C)[nH]c1=O (stereo not drawn) [Example 228, 5′-Ethyl-2′-methyl-6′-oxo-1′,6′-dihydro-[3,3′]bipyridinyl-5-carboxylic acid (cyclopropyl-pyridin-3-yl-methyl)-amide] | 10.7 |
| CCCCNC(=O)c1cccc(-c2cc(CC)c(=O)[nH]c2C)n1 [Example 206, 5′-Ethyl-2′-methyl-6′-oxo-1′,6′-dihydro-[2,3′]bipyridinyl-6-carboxylic acid butylamide] | 1.14 |
| CCc1cc(-c2cncc(C(=O)NCCc3ccc([N+](=O)[O-])cc3)c2)c(C)[nH]c1=O [Example 230, 5′-Ethyl-2′-methyl-6′-oxo-1′,6′-dihydro-[3,3′]bipyridinyl-5-carboxylic acid [2-(4-nitro-phenyl)-ethyl]-amide] | 0.13 |
| CCc1cc(-c2cncc(C(=O)NCCC3CCOCC3)c2)c(C)[nH]c1=O [Example 242, 5′-Ethyl-2′-methyl-6′-oxo-1′,6′-dihydro-[3,3′]bipyridinyl-5-carboxylic acid [2-(tetrahydro-pyran-4-yl)-ethyl]-amide] | 1.79 |
| CCc1cc(-c2cncc(C(=O)NCc3ccc(S(N)(=O)=O)cc3)c2)c(C)[nH]c1=O [Example 255, 5′-Ethyl-2′-methyl-6′-oxo-1′,6′-dihydro-[3,3′]bipyridinyl-5-carboxylic acid 4-sulfamoyl-benzylamide] | 0.28 |
| CCc1cc(-c2ccc(CN(Cc3ccccc3)Cc3cccnc3)o2)c(C)[nH]c1=O [Example 182A, 5-{5-[(Benzyl-pyridin-3-ylmethyl-amino)-methyl]-furan-2-yl}-3-ethyl-6-methyl-1H-pyridin-2-one] | 17.4 |
| CCc1cc(-c2cncc(C(=O)N3CCCC3)c2)c(C)[nH]c1=O [Example 226, 5-Ethyl-2-methyl-5′-(pyrrolidine-1-carbonyl)-1H-[3,3′]bipyridinyl-6-one] | 0.95 |
| CCc1cc(-c2ccc(CNCc3ccc(NC(C)=O)cc3)o2)c(C)[nH]c1=O [Example 182B, N-[4-({[5-(5-Ethyl-2-methyl-6-oxo-1,6-dihydro-pyridin-3-yl)-furan-2-ylmethyl]-amino}-methyl)-phenyl]-acetamide] | 0.29 |
